# From publication PMC5719405, “Sex-related pharmacokinetic differences and mechanisms of metapristone (RU486 metabolite)” (Scientific Reports, 2017)
# Read-outs that look alike come from different tables or passages of the source.
# How the values were obtained:
# [1] = Single-dose pharmacokinetics of metapristone in rats (p.o. and i.v.), non-compartmental analysis; format: in vivo, Sprague Dawley (SD) rats; conditions: for MRT last: read-out: MRT (0-t)
# Method: For pharmacokinetic study, rats were fasted overnight with free access to water using procedures reported previously. Ninety-six SD rats (forty-eight males and forty-eight females) were randomly divided into […] single-dose groups. Rats (six animals/sex/dose) were given a single oral dose of 22.5, 45 and 90 mg/kg metapristone (in soybean oil solution) by intragastric administration or 10 mg/kg metapristone by intravenous bolus injection. Rat blood samples (0.25 mL) were collected from the ocular vein into heparinized tubes prior to and at 0 (before administration), 0.5, 1.0, 1.5, 2.0, 4.0, 6.0, 8.0, 12, 24, 36 and 48 h post-dosing in female rats or 0.5, 1.0, 1.5, 2.0, 4.0, 6.0, 8.0, 12, 24, 30 and 36 h post-dosing in male rats. In the repeated dose study twenty-four rats (six animals/sex/dose) received the same dosing regimen at 45 mg/kg metapristone for 10 days. Blood samples were collected after oral administration on day 1 and 10 at T max. The samples were stored at −80 °C until analysis. Beagle dogs (three animals/sex/dose) were dosed by gavage at 5.62, 11.25, 22.5 mg/kg metapristone (in soybean oil solution). Dog blood (0.25 mL) was withdrawn from the jugular vein at 0.5, 1.0, 2.0, 4.0, 6.0, 8.0, 10, 12, 24 and 48 h after a single oral administration.
# The plasma samples obtained by centrifugation at 4000 g for 10 min and stored at −80 °Cuntil analysis. To each 100 µL of plasma sample, 50 µL of internal standard solution were added. Metapristone was then separated and analyzed by the LC/MS/MS method according to the previously described procedures. Peak area ratios of metapristone to the internal standard were plotted against theoretical concentrations. The maximum plasma concentration (C max), the time to reach C max (T max) were determined directly from experimental data. The other pharmacokinetic parameters such as elimination half-life (t 1/2), and mean residence time (MRT) were calculated by using the non-compartmental pharmacokinetics data analysis software of DAS version 3.2 (Bio Guider Co., Shanghai, China). The area under the plasma concentration-time curve from zero to infinity was calculated by using the linear trapezoidal rule with extrapolation to infinity with terminal constant eliminate rate (k e). Bioavailability was calculated as (AUCp.o./AUCi.v.) x (dosei.v./ dosep.o.) 100% as we previously described.
# CYP3A4 = assay: Western blotting of rat liver CYP3A4 after 7-day oral metapristone; format: in vivo
# Method: To further confirm CYP1A2 and CYP3A4 are the primary CYP isoforms that metabolize metapristone, we administered oral metapristone (22.5 and 45 mg/kg/day for 7 days) to male and female rats, respectively, and measured the activity of liver CYP1A2 and CYP3A4 by using the western blotting assay. We selected western blot staining density from the controls as the basis (100%) to compare changes in CYP1A2 and CYP3A4 activity after metapristone treatment.
# The total microsomal protein was extracted from rat livers prepared by diluting liver microsomal suspension with 1 volume of immunoprecipitation assay lysis buffer (150 mM NaCl, 1% NP-40, 0.5% sodium deoxy-cholic acid, 0.1% SDS, and 50 mM Tris-Cl, pH 7.5) for 15 min and then centrifuged at 13,000 rpm 4 °C for 10 min. Aliquots containing 20 µg of protein were separated by SDS-PAGE on a 10% gradient gel (Invitrogen, USA) and transferred to a PVDF membrane that was blocked with 5% non-fat dry milk in Tris-buffered saline with Tween 20 (200 mM Tris–HCl, 1.37 M NaCl, 0.1% Tween 20, pH 7.6) for 1 h. The membrane was then incubated with rabbit anti-rat CYP1A2 polyclonal antibody (1:2000 dilution), rabbit anti-rat CYP3A4 polyclonal antibody (1:1000 dilution) and glyceraldehyde-3-phosphate dehydrogenase (GAPDH) antibody (1:2000 dilution), overnight at 4 °C. After rinsing five times with buffer TBST at room temperature, the membrane was incubated with horseradish peroxidase (HRP)-labeled anti-rabbit immunoglobulin G (IgG) anti-body (Santa Cruz Biotechnology, USA). The immunoreactive bands were visualized using an enhanced chemiluminescence detection system (ChemiDoc™XRS + , Bio-Rad, Hercules, CA, USA) and quantified by using densitometry Image J 1.41 software.
# [2] = Sprague-Dawley, rat, plasma, iv, female rats, i.v. 10 mg/kg
# [3] = Sprague-Dawley, rat, plasma, iv, male rats, i.v. 10 mg/kg
# [4] = Sprague-Dawley, rat, plasma, po, female rats, p.o. 22.5 mg/kg
# [5] = Sprague-Dawley, rat, plasma, po, female rats, p.o. 45 mg/kg
# [6] = Sprague-Dawley, rat, plasma, po, female rats, p.o. 90 mg/kg
# [7] = Sprague-Dawley, rat, plasma, po, male rats, p.o. 22.5 mg/kg
# [8] = Sprague-Dawley, rat, plasma, po, male rats, p.o. 45 mg/kg
# [9] = Sprague-Dawley, rat, plasma, po, male rats, p.o. 90 mg/kg
smiles,measurement,setting,value
"CC#C[C@]1(O)CC[C@H]2[C@@H]3CCC4=CC(=O)CCC4=C3[C@@H](c3ccc(NC)cc3)C[C@@]21C [metapristone, N-monodemethyl mifepristone]",AUC(0-inf),[1]; [2],9810 ± 2340 ng·h/mL
same,AUC(0-t),[1]; [2],9750 ± 2320 ng·h/mL
same,Cmax,[1]; [2],6050 ± 670 ng/mL
same,half-life,[1]; [2],5.18 ± 3.41 h
same,MRT last,[1]; [2],1.68 ± 0.72 h
same,AUC(0-inf),[1]; [3],5460 ± 1150 ng·h/mL
same,AUC(0-t),[1]; [3],5520 ± 1150 ng·h/mL
same,Cmax,[1]; [3],4050 ± 250 ng/mL
same,half-life,[1]; [3],9.45 ± 4.99 h
same,MRT last,[1]; [3],1.56 ± 0.41 h
same,AUC(0-inf),[1]; [4],4230 ± 1640 ng·h/mL
same,AUC(0-t),[1]; [4],4050 ± 1620 ng·h/mL
same,Cmax,[1]; [4],270 ± 50 ng/mL
same,half-life,[1]; [4],10.8 ± 3.2 h
same,bioavailability,"[1]; Sprague-Dawley, rat, plasma, po, female rats, p.o. 22.5 mg/kg, read-out: F",18.5%
same,MRT last,[1]; [4],14.4 ± 5.65 h
same,Tmax,"[1]; Sprague-Dawley, rat, plasma, po, female rats, p.o. 22.5 mg/kg, read-out: T max",9 ± 7.5 h
same,Vd/F,"[1]; Sprague-Dawley, rat, plasma, po, female rats, p.o. 22.5 mg/kg, read-out: V d /F",77.3 ± 36 L/kg
same,AUC(0-inf),[1]; [5],11300 ± 3170 ng·h/mL
same,AUC(0-t),[1]; [5],9630 ± 4540 ng·h/mL
same,Cmax,[1]; [5],650 ± 220 ng/mL
same,half-life,[1]; [5],10.7 ± 3.71 h
same,bioavailability,"[1]; Sprague-Dawley, rat, plasma, po, female rats, p.o. 45 mg/kg, read-out: F",22%
same,MRT last,[1]; [5],13.7 ± 6.91 h
same,Tmax,"[1]; Sprague-Dawley, rat, plasma, po, female rats, p.o. 45 mg/kg, read-out: T max",11 ± 12.3 h
same,Vd/F,"[1]; Sprague-Dawley, rat, plasma, po, female rats, p.o. 45 mg/kg, read-out: V d /F",67.6 ± 47.6 L/kg
same,AUC(0-inf),[1]; [6],15600 ± 2100 ng·h/mL
same,AUC(0-t),[1]; [6],14900 ± 2190 ng·h/mL
same,Cmax,[1]; [6],790 ± 200 ng/mL
same,half-life,[1]; [6],8.83 ± 7.3 h
same,bioavailability,"[1]; Sprague-Dawley, rat, plasma, po, female rats, p.o. 90 mg/kg, read-out: F",16.9%
same,MRT last,[1]; [6],15.6 ± 5.82 h
same,Tmax,"[1]; Sprague-Dawley, rat, plasma, po, female rats, p.o. 90 mg/kg, read-out: T max",7.58 ± 3.38 h
same,Vd/F,"[1]; Sprague-Dawley, rat, plasma, po, female rats, p.o. 90 mg/kg, read-out: V d /F",86.3 ± 62.9 L/kg
same,AUC(0-inf),[1]; [7],4470 ± 1110 ng·h/mL
same,AUC(0-t),[1]; [7],3570 ± 1090 ng·h/mL
same,Cmax,[1]; [7],30 ± 10 ng/mL
same,half-life,[1]; [7],8 ± 2.4 h
same,bioavailability,"[1]; Sprague-Dawley, rat, plasma, po, male rats, p.o. 22.5 mg/kg, read-out: F",28.7%
same,MRT last,[1]; [7],11.2 ± 2.12 h
same,Tmax,"[1]; Sprague-Dawley, rat, plasma, po, male rats, p.o. 22.5 mg/kg, read-out: T max",5.7 ± 2 h
same,Vd/F,"[1]; Sprague-Dawley, rat, plasma, po, male rats, p.o. 22.5 mg/kg, read-out: V d /F",804 ± 267 L/kg
same,AUC(0-inf),[1]; [8],2040 ± 1330 ng·h/mL
same,AUC(0-t),[1]; [8],1960 ± 1320 ng·h/mL
same,Cmax,[1]; [8],140 ± 100 ng/mL
same,half-life,[1]; [8],8.11 ± 4.31 h
same,bioavailability,"[1]; Sprague-Dawley, rat, plasma, po, male rats, p.o. 45 mg/kg, read-out: F",7.9%
same,MRT last,[1]; [8],13.9 ± 1.17 h
same,Tmax,"[1]; Sprague-Dawley, rat, plasma, po, male rats, p.o. 45 mg/kg, read-out: T max",7.7 ± 2.9 h
same,Vd/F,"[1]; Sprague-Dawley, rat, plasma, po, male rats, p.o. 45 mg/kg, read-out: V d /F",768 ± 127 L/kg
same,AUC(0-inf),[1]; [9],8920 ± 960 ng·h/mL
same,AUC(0-t),[1]; [9],8760 ± 70 ng·h/mL
same,Cmax,[1]; [9],550 ± 180 ng/mL
same,half-life,[1]; [9],4.62 ± 3 h
same,bioavailability,"[1]; Sprague-Dawley, rat, plasma, po, male rats, p.o. 90 mg/kg, read-out: F",17.6%
same,MRT last,[1]; [9],12.8 ± 2.43 h
same,Tmax,"[1]; Sprague-Dawley, rat, plasma, po, male rats, p.o. 90 mg/kg, read-out: T max",10.3 ± 2.7 h
same,Vd/F,"[1]; Sprague-Dawley, rat, plasma, po, male rats, p.o. 90 mg/kg, read-out: V d /F",92.5 ± 91.7 L/kg
same,bioavailability,"[1]; Sprague-Dawley, rat, plasma, male rats, range over three oral doses, read-out: Oral bioavailability",2.1 to 17.6%
same,Tmax,"[1]; Sprague-Dawley, rat, plasma, rats, both sexes, oral doses of Table 1, read-out: T max after oral absorption",5.7 to 11 h
same,CL/F,"[1]; female rats, i.v. 10 mg/kg",17.7 ± 4.17 mL/min/kg
same,Vd/F,"[1]; female rats, i.v. 10 mg/kg",8.02 ± 6.13 L/kg
same,CL/F,"[1]; female, Sprague-Dawley, rat, plasma, po, 22.5 mg/kg, female rats, p.o. 22.5 mg/kg, read-out: CL/F (converted)",117 mL/min/kg
same,CL/F,"[1]; female, Sprague-Dawley, rat, plasma, po, 45 mg/kg, female rats, p.o. 45 mg/kg, read-out: CL/F (converted)",87.5 mL/min/kg
same,CL/F,"[1]; female, Sprague-Dawley, rat, plasma, po, 90 mg/kg, female rats, p.o. 90 mg/kg, read-out: CL/F (converted)",80.8 mL/min/kg
same,decrease of CL/F for female rats versus male rats,[1]; i.v. 10 mg/kg,87%
same,CL/F,"[1]; male rats, i.v. 10 mg/kg",33 ± 6.5 mL/min/kg
same,Vd/F,"[1]; male rats, i.v. 10 mg/kg",24.34 ± 5.52 L/kg
same,CL/F,"[1]; male rats, p.o. 45 mg/kg, 45 mg/kg",782.2 ± 345 mL/min/kg
same,CL/F,"[1]; male, Sprague-Dawley, rat, plasma, po, 22.5 mg/kg, male rats, p.o. 22.5 mg/kg, read-out: CL/F (converted)",1160 mL/min/kg
same,CL/F,"[1]; male, Sprague-Dawley, rat, plasma, po, 45 mg/kg, male rats, p.o. 45 mg/kg, read-out: CL/F (converted)",782 mL/min/kg
same,CL/F,"[1]; male, Sprague-Dawley, rat, plasma, po, 90 mg/kg, male rats, p.o. 90 mg/kg, read-out: CL/F (converted)",196 mL/min/kg
same,increase of C max for female rats versus male rats,[1]; p.o. 45 mg/kg,364%
same,CYP3A4 western blot staining density relative to controls (100%),"CYP3A4; female rats, 22.5 mg/kg/day p.o. for 7 days",107 ± 13%
same,CYP3A4 western blot staining density relative to controls (100%),"CYP3A4; female rats, 45 mg/kg/day p.o. for 7 days",128 ± 12%
same,CYP3A4 western blot staining density relative to controls (100%),"CYP3A4; male rats, 22.5 mg/kg/day p.o. for 7 days",115 ± 14%
same,CYP3A4 western blot staining density relative to controls (100%),"CYP3A4; male rats, 45 mg/kg/day p.o. for 7 days",153 ± 17%
